# From patent US20040110287A1, “Multi-step method for the differentiation of insulin positive, glucose responsive cells” (ES Cell International Pte Ltd., priority 2002, published 2004)
# Test system: islet-like structures
# Assay: Glucose-stimulated insulin release and insulin content of islet-like structures
# Format: cell-based
# Settings: 3 mM or 20 mM glucose, factor added to culture
# Method: After the complete differentiation protocol described in detail in Example 2, the islet-like structures were cultured in the presence of either 3 mM glucose or 20 mM glucose to assay for glucose-stimulated insulin release. Insulin release and total insulin content were measured using standard methods. Additionally, factors were added to the culture of islet-like structures.
row,Molecule,responsiveness of islet-like structures to high glucose (insulin release)
1,"CC(C)(COP(=O)(O)OP(=O)(O)OC[C@H]1O[C@@H](n2cnc3c(N)ncnc32)[C@H](O)[C@@H]1OP(=O)(O)O)[C@@H](O)C(=O)NCCC(=O)NCCSC(=O)CC(=O)O [malonyl CoA, reference compound]",increased the responsiveness
2,"NC(=O)c1cccnc1 [nicotinamide, reference compound]",increased the responsiveness
3,Desert hedgehog,increased the responsiveness
4,Indian hedgehog,increased the responsiveness
5,Sonic hedgehog,increased the responsiveness
6,exendin-4 [reference compound],increased the responsiveness
7,leptin,increased the responsiveness
